For seven molecules, TGI results are on record in PubChem BioAssay (NCI).

Each structure is given as a SMILES string.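 Assay format: 96-well plates, 48-hour exposure. At the TGI there is no net growth.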

Test systems include DU-145 prostate; LOX IMVI melanoma; HCT-116 colon; MALME-3M melanoma; OVCAR-3 ovarian; A549 NSCLC; TK-10 renal; M14 melanoma; HCT-15 colon; RPMI-8226 leukemia; BT-549 breast; NCI/ADR-RES ovarian; MDA-MB-231 breast; CAKI-1 renal; KM12 colon; SK-MEL-2 melanoma; EKVX NSCLC; 786-0 renal; MDA-N.
What all share (test): inhibition of tumour cell growth, NCI panel, 48 h

For the molecule `COc1cccc2c1C(=O)C(=O)c1c-2oc(=O)c2cc(C)cc(OC)c12`, the TGI in the test with DU-145 prostate was 27.9 µM; with LOX IMVI melanoma it was 26.5 µM; in the test with HCT-116 colon, more than 75 µM; in the test with MALME-3M melanoma it was more than 75 µM; with OVCAR-3 ovarian, 27.2 µM; in the test with A549 NSCLC, more than 75 µM. In addition, the TGI in the test on TK-10 renal is more than 75 µM; in the test with M14 melanoma it was more than 75 µM; with HCT-15 colon it was 27.7 µM; with RPMI-8226 leukemia, 62.4 µM; with BT-549 breast it was 26 µM; in the test on NCI/ADR-RES ovarian it was 31.7 µM. The TGI with MDA-MB-231 breast is 70.6 µM; with CAKI-1 renal, more than 75 µM; in the test with KM12 colon, 53.9 µM; with SK-MEL-2 melanoma, 35.1 µM; in the test on EKVX NSCLC, more than 75 µM; in the test with 786-0 renal, more than 75 µM. The molecule also registered a TGI in the test on MDA-N of 38.7 µM.

In the case of `COC(C)(C)C(O)C(O)C[C@H](C)C1CC=C2C1(C)CCC1[C@@]3(C)CCC(OC(C)=O)C(C)(C)C3CC(OC3OC(COC(C)=O)C(O)C(O)C3O)[C@@]21C` (some centres not stated), the TGI in the test on DU-145 prostate is more than 10 µM; in the test on LOX IMVI melanoma, 6.55 µM; in the test with HCT-116 colon, more than 10 µM; in the test with MALME-3M melanoma, more than 10 µM; in the test with OVCAR-3 ovarian it was 9.79 µM; with A549 NSCLC, more than 10 µM. Moreover, the TGI with TK-10 renal is more than 10 µM; in the test with M14 melanoma it was more than 10 µM; in the test with HCT-15 colon, more than 10 µM; in the test on RPMI-8226 leukemia, 5.14 µM; in the test on BT-549 breast, more than 10 µM; with NCI/ADR-RES ovarian, more than 10 µM. Besides, the TGI was 9.73 µM in the test with MDA-MB-231 breast; more than 10 µM in the test on CAKI-1 renal; more than 10 µM in the test with KM12 colon; more than 10 µM in the test on EKVX NSCLC; more than 10 µM in the test with 786-0 renal; more than 10 µM in the test on MDA-N.

With `c1ccc(COCC23CCN(Cc4ccccc4)C(CC(OCc4ccccc4)C2)S3)cc1` (configuration not stated), the TGI with DU-145 prostate, with LOX IMVI melanoma, with HCT-116 colon, in the test with MALME-3M melanoma, in the test with OVCAR-3 ovarian and with A549 NSCLC was more than 100 µM in each case. Also, the TGI in the test on M14 melanoma, in the test with HCT-15 colon, in the test on RPMI-8226 leukemia, in the test on BT-549 breast, with NCI/ADR-RES ovarian and in the test with MDA-MB-231 breast was more than 100 µM each time. The TGI with CAKI-1 renal, with KM12 colon, with SK-MEL-2 melanoma, in the test on EKVX NSCLC, in the test on 786-0 renal and in the test on MDA-N was more than 100 µM each time.

Take `C=C(Cl)C(C)(Cl)CCC(Cl)C(C)(C)Cl` (configuration not stated): the TGI was more than 100 µM with DU-145 prostate; 61.2 µM in the test on LOX IMVI melanoma; more than 100 µM with HCT-116 colon; more than 100 µM in the test on MALME-3M melanoma; more than 100 µM in the test on OVCAR-3 ovarian; more than 100 µM with A549 NSCLC. In addition, the TGI was more than 100 µM in the test on TK-10 renal; more than 100 µM in the test with M14 melanoma; 48.7 µM in the test with RPMI-8226 leukemia; more than 100 µM in the test with BT-549 breast; more than 100 µM in the test with NCI/ADR-RES ovarian; 83.3 µM in the test with MDA-MB-231 breast. For the same molecule, the TGI in the test with CAKI-1 renal, in the test with KM12 colon, in the test with SK-MEL-2 melanoma, in the test on EKVX NSCLC, with 786-0 renal and in the test on MDA-N was more than 100 µM throughout.

With `COC(=O)c1cc(NC2OCC(OC(C)=O)C(OC(C)=O)C2OC(C)=O)nc(SC)c1C(=O)OC` (configuration not stated), the TGI with DU-145 prostate, with LOX IMVI melanoma, in the test with HCT-116 colon, in the test with OVCAR-3 ovarian, in the test on A549 NSCLC and in the test with TK-10 renal was more than 100 µM in each case. Further, the TGI in the test on M14 melanoma, with HCT-15 colon, in the test with RPMI-8226 leukemia, in the test on BT-549 breast, with NCI/ADR-RES ovarian and with MDA-MB-231 breast was more than 100 µM each time. Besides, the TGI in the test on CAKI-1 renal, in the test with KM12 colon, in the test on SK-MEL-2 melanoma, in the test on EKVX NSCLC, in the test with 786-0 renal and in the test on MDA-N was more than 100 µM each time.

Take `COc1cc(-c2c[nH]c3ccccc23)nc(-c2c[nH]c3ccccc23)n1`: the TGI came out at 23.9 µM with DU-145 prostate; 16.5 µM with LOX IMVI melanoma; 13.6 µM in the test on HCT-116 colon; 19.6 µM in the test on OVCAR-3 ovarian; 12.5 µM in the test with A549 NSCLC; 20.6 µM in the test with TK-10 renal. Moreover, the TGI came out at 14.8 µM in the test on M14 melanoma; 22.3 µM in the test with HCT-15 colon; 10.6 µM in the test on RPMI-8226 leukemia; 38.4 µM in the test on BT-549 breast; 59.6 µM with NCI/ADR-RES ovarian; 8 µM in the test on MDA-MB-231 breast. In addition, the TGI in the test with CAKI-1 renal was found to be 20.7 µM; in the test with KM12 colon, 16.2 µM; in the test with SK-MEL-2 melanoma, 16.2 µM; in the test with EKVX NSCLC, 19 µM; in the test on 786-0 renal, 4.67 µM; in the test with MDA-N, 14.2 µM.

With `COc1ccc(C)c2c1N[C@](C)([C@]1(C)Nc3c(OC)ccc(C)c3C1=O)C2=O`, the TGI in the test with DU-145 prostate, in the test with LOX IMVI melanoma, in the test on HCT-116 colon, in the test with MALME-3M melanoma, in the test with OVCAR-3 ovarian and in the test on A549 NSCLC was more than 100 µM throughout. In addition, the TGI in the test with M14 melanoma, in the test with HCT-15 colon, in the test on RPMI-8226 leukemia, in the test with BT-549 breast, in the test with NCI/ADR-RES ovarian and in the test with MDA-MB-231 breast was more than 100 µM throughout. Besides, the TGI in the test on CAKI-1 renal, in the test on KM12 colon, with SK-MEL-2 melanoma, with EKVX NSCLC, in the test on 786-0 renal and in the test with MDA-N was more than 100 µM in each case.
